# How the values were obtained:
# [1] = test system: microtubule (HeLa human cervical cancer cells); assay: Fluorescence bio-imaging of microtubule in fixed HeLa cells pre-treated with Docetaxel-TCO conjugate; assay type: cell-based; details: for fluorescence signal on addition to cells: fixed HeLa cells cultured with Dox-TCO for 1 hour, washed with PBS; for specificity of staining, immunofluorescence with α-tubulin antibody: fixed HeLa cells, Dox-TCO
# Method: (§1) The fluorescence imaging test was performed using a DeltaVision Elite imaging system of GE Healthcare, and an Olympus IX-71 microscope was used.
# Docetaxel-TCO conjugate (Dox-TCO) was used for fluorescence bio-imaging of microtubule. HeLa human cervical cancer cells were fixed, and cultured with Dox-TCO for 1 hour, and then washed with PBS.
# [2] = test system: mitochondria (HeLa cells); assay: Fluorescence imaging of mitochondria in living HeLa cells pre-treated with TPP-TCO; assay type: cell-based, human; details: for position of fluorescence signal versus MitoTracker Deep Red: HeLa cells, TPP-TCO and compound; for fluorescence mitochondria image: living HeLa cells treated with TPP-TCO for 1 hour; for fluorescence mitochondria image / fluorescence expression intensity in the extracellular region: then compound; for fluorescence expression intensity in the extracellular region: living HeLa cells treated with TPP-TCO
# Method: as §1
# In order to confirm the fluorescence imaging of mitochondria in living cells, it was tested by the following method.
# HeLa cells were incubated for 1 hour in the presence or absence of triphenylphosphonium (TPP)-TCO, and then HeLa cells were washed and treated with the compound of Example 5 or Example 6.
# In addition, in order to confirm the selectivity of TPP-TCO and Example 5, and TPP-TCO and Example 6 for mitochondria, HeLa cells were treated with MitoTracker Deep Red, a mitochondria coloring dye, As a result, it was observed that the position of the fluorescence signal of MitoTracker Deep Red was consistent with that of Example 5 or Example 6.
# [3] = Second rate constant of the reaction with TCO; assay type: physicochemical
# Method: (§2) In this test, the absorption spectrum was measured with a UV-VIS spectrophotometer UV-1650PC (Shimadzu), and the emission spectrum and motion data were measured using a Cary Eclipse Fluorescence spectrophotometer (Varian Associates), and the absolute quantum yield was measured with a QE-2000 (Otsuka Electronics).
# [4] = Change in emission properties (quantum yield, excitation/emission maxima, fluorescence amplification) before and after reaction with TCO; assay type: physicochemical; details: for fluorescence amplification rate (on/off): before and after reaction with TCO; for fluorescence signal amplification efficiency after the reaction with TCO: long wavelength range, diethylamino group at R1
# Method: as §2
# The emission spectrum was compared when the maximum fluorescence intensity was reached before and after the reaction of the compound and TCO, and changes in fluorescence of the compounds of Examples 1 to 4 and Comparative Examples 1 to 4 were observed, and the results are shown in Table 1 below.
# The emission spectrum was compared when the maximum fluorescence intensity was reached before and after the reaction of the compound and TCO, and changes in fluorescence of the compounds of Examples 1 and 4 and Comparative Examples 3 to 6 were observed, and the results are shown in Table 2 below, FIGS. 3 and 4.
λem maximum emission wavelength ([4]; Table 1) [nm],λex largest excitation maxima at a given maximum emission wavelength ([4]; Table 1) [nm],Φon absolute quantum yield after the reaction with TCO ([4]; Table 1),Φoff absolute quantum yield before the reaction with TCO ([4]; Table 1),λem maximum emission wavelength ([4]; Table 2) [nm],λex largest excitation maxima at a given maximum emission wavelength ([4]; Table 2) [nm],Φon absolute quantum yield after the reaction with TCO ([4]; Table 2),Φoff absolute quantum yield before the reaction with TCO ([4]; Table 2),Structure (SMILES),fluorescence signal on addition to cells [1],"specificity of staining, immunofluorescence with α-tubulin antibody [1]",position of fluorescence signal versus MitoTracker Deep Red [2],fluorescence mitochondria image [2],fluorescence expression intensity in the extracellular region [2],"K2 second rate constant value ([3]; Table 1, measured at 20° C.) [m^−1s^−1]","K2 second rate constant value ([3]; Table 2, measured at 20° C.) [m^−1s^−1]",fluorescence amplification rate (on/off) ([4]; Table 1),fluorescence amplification rate (on/off) ([4]; Table 2),fluorescence signal amplification efficiency after the reaction with TCO ([4]; Table 2)
–,–,–,–,–,–,–,–,"Cc1nnc(-c2ccn3c4c(c(-c5ccccc5)c3c2)CN(CCCN2CCN(CCC(=O)O)CC2)C4=O)nn1 [Example 5, 3-(4-(3-(7-(6-methyl-1,2,4,5-tetrazin-3-yl)-3-oxo-9-phenyl-1,3-dihydro-2H-pyrrolo[3,4-b]indolizin-2-yl)propyl)piperazin-1-yl)propanoic acid]",a bright fluorescence signal was generated,microtubule specific staining,consistent,a clear fluorescence mitochondria image was observed,0,–,–,–,–,–
581,401,0.045,0.001,581,401,0.045,0.001,"CCN(CC)c1ccc(-c2c3c(n4ccc(-c5nnc(C)nn5)cc24)C(=O)N(CCCNC(=O)OC(C)(C)C)C3)cc1 [Example 4, tert-butyl (3-(9-(4-(diethylamino)phenyl)-7-(6-methyl-1,2,4,5-tetrazin-3-yl)-3-oxo-1,3-dihydro-2H-pyrrolo[3,4-b]indolizin-2-yl)propyl)carbamate]",–,–,–,–,–,22,22,>600,>600,excellent
505,383,0.485,0.001,–,–,–,–,"COc1ccc(-c2c3c(n4ccc(-c5nnc(C)nn5)cc24)C(=O)N(CCCNC(=O)OC(C)(C)C)C3)cc1 [Example 2, tert-butyl (3-(9-(4-methoxyphenyl)-7-(6-methyl-1,2,4,5-tetrazin-3-yl)-3-oxo-1,3-dihydro-2H-pyrrolo[3,4-b]indolizin-2-yl)propyl)carbamate]",–,–,–,–,–,23,–,">1,000",–,–
–,–,–,–,608,418,0.016,0.005,"CCN(CC)c1ccc(-c2c3c(n4ccc(C(=O)NCc5ccc(-c6nnc(C)nn6)cc5)cc24)C(=O)N(CCCNC(=O)OC(C)(C)C)C3)cc1 [Comparative Example 5, tert-butyl (3-(9-(4-(diethylamino)phenyl)-7-((4-(6-methyl-1,2,4,5-tetrazin-3-yl)benzyl)carbamoyl)-3-oxo-1,3-dihydro-2H-pyrrolo[3,4-b]indolizin-2-yl)propyl)carbamate]",–,–,–,–,–,–,15,–,30,significantly reduced
484,375,0.683,0.002,484,375,0.683,0.002,"Cc1nnc(-c2ccn3c4c(c(-c5ccccc5)c3c2)CN(CCCNC(=O)OC(C)(C)C)C4=O)nn1 [Example 1, tert-butyl (3-(7-(6-methyl-1,2,4,5-tetrazin-3-yl)-3-oxo-9-phenyl-1,3-dihydro-2H-pyrrolo[3,4-b]indolizin-2-yl)propyl)carbamate]",–,–,–,–,–,24,24,">1,000",">1,000",excellent
–,–,–,–,–,–,–,–,"CCN(CC)c1ccc(-c2c3c(n4ccc(-c5nnc(C)nn5)cc24)C(=O)N(CCCN2CCN(C)CC2)C3)cc1 [Example 6, 9-(4-(diethylamino)phenyl)-7-(6-methyl-1,2,4,5-tetrazin-3-yl)-2-(3-(4-methylpiperazin-1-yl)propyl)-1,2-dihydro-3H-pyrrolo[3,4-b]indolizin-3-one]",a bright fluorescence signal was generated,microtubule specific staining,consistent,a clear fluorescence mitochondria image was observed,0,–,–,–,–,–
493,375,0.616,0.012,493,375,0.616,0.012,"Cc1nnc(-c2ccc(CNC(=O)c3ccn4c5c(c(-c6ccccc6)c4c3)CN(CCCNC(=O)OC(C)(C)C)C5=O)cc2)nn1 [Comparative Example 3, tert-butyl (3-(7-((4-(6-methyl-1,2,4,5-tetrazin-3-yl)benzyl)carbamoyl)-3-oxo-9-phenyl-1,3-dihydro-2H-pyrrolo[3,4-b]indolizin-2-yl)propyl)carbamate]",–,–,–,–,–,15,15,67,67,–

# Source: US11584749B2, “Phosphor-tetrazine compound and use thereof” (Spark Biopharma, Inc., priority 2018, dated 2023)
